Where a name gives a salt, the structure may show the parent alone.
Target: T1, Savinase® 16.0L (Lederbergia lenta, UniProt P29600)
T1 construct: purchased Sigma-Aldrich
T1 sequence (P29600 1-269): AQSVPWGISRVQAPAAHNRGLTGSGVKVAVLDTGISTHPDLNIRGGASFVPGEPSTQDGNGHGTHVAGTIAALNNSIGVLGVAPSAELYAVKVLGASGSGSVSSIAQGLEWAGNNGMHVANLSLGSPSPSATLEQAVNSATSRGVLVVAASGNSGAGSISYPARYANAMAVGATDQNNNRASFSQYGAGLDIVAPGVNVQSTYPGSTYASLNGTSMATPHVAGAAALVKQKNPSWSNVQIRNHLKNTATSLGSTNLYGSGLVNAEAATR
Assay: Protease storage stability in liquid formulations at 37° C. (Suc-AAPF-pNA assay)
Type: biochemical
Details: 0.7 wt% Savinase 16.0 L
Description: The storage stability of protease was assessed at 37° C.
Base test formulations were manufactured by making base formulations I to V by mixing the components according to Table 1.
Protease used: Savinase® 16.0L (CAS-No. 9014-01-1, EC-No. 232-752-2) was purchased from Sigma-Aldrich.
The respective component (a) or comparative compound was added, if applicable, to the respective base formulation in amounts as indicated in Table 1.
The amount of protease as provided in Table 1 refers to active protein.
Water was added to accomplish the balance to 100.
Savinase activity at certain points in time as indicated in Table 2 was be determined by employing Succinyl-Ala-Ala-Pro-Phe-p-nitroanilide (Suc-AAPF-pNA, short AAPF) as substrate. pNA is cleaved from the substrate molecule by proteolytic cleavage, resulting in release of yellow color of free pNA which was determined by measuring OD405. Measurements were done at 20° C.
The proteolytic activity values provided in Table 3 were calculated referring to the 100% value determined in the reference formulation at the time 0.
The nomenclature of formulations is as follows: the Roman number before the full stop characterizes the base formulation, the Arabian number the type of compound (A. # compound according to invention (component (a)); (B. #) comparative compound).

[1] = base formulation I, 2.5 wt% compound, 3 d
[2] = base formulation I, 2.5 wt% compound, 7 d
[3] = base formulation I, 2.5 wt% compound, 14 d
[4] = base formulation I, 2.5 wt% compound, 21 d
[5] = base formulation I, 2.5 wt% compound, 28 d
[6] = base formulation I, 2.5 wt% compound, 35 d
[7] = base formulation III, 2.0 wt% compound, 3 d
[8] = base formulation III, 2.0 wt% compound, 7 d
[9] = base formulation III, 2.0 wt% compound, 14 d
[10] = base formulation III, 2.0 wt% compound, 21 d
[11] = base formulation III, 2.0 wt% compound, 28 d
[12] = base formulation III, 2.0 wt% compound, 35 d
[13] = base formulation II, 2.5 wt% compound, 3 d
[14] = base formulation II, 2.5 wt% compound, 7 d
[15] = base formulation II, 2.5 wt% compound, 14 d
[16] = base formulation II, 2.5 wt% compound, 21 d
[17] = base formulation II, 2.5 wt% compound, 28 d
[18] = base formulation II, 2.5 wt% compound, 35 d

O=C(O)CC(O)(CC(=O)O)C(=O)O [B.1, citric acid, reference compound]
protease activity in the course of time of storage at 37° C. [1]: 94% | protease activity in the course of time of storage at 37° C. [2]: 86% | protease activity in the course of time of storage at 37° C. [3]: 76% | protease activity in the course of time of storage at 37° C. [4]: 67% | protease activity in the course of time of storage at 37° C. [5]: 62% | protease activity in the course of time of storage at 37° C. [6]: 57% | protease activity in the course of time of storage at 37° C. [7]: 92% | protease activity in the course of time of storage at 37° C. [8]: 84% | protease activity in the course of time of storage at 37° C. [9]: 75% | protease activity in the course of time of storage at 37° C. [10]: 65% | protease activity in the course of time of storage at 37° C. [11]: 60% | protease activity in the course of time of storage at 37° C. [12]: 53% | protease activity in the course of time of storage at 37° C. (base formulation V, 2.0 wt% compound, 3 d): 93% | protease activity in the course of time of storage at 37° C. (base formulation V, 2.0 wt% compound, 7 d): 86% | protease activity in the course of time of storage at 37° C. (base formulation V, 2.0 wt% compound, 14 d): 75% | protease activity in the course of time of storage at 37° C. (base formulation V, 2.0 wt% compound, 21 d): 65% | protease activity in the course of time of storage at 37° C. (base formulation V, 2.0 wt% compound, 28 d): 57% | protease activity in the course of time of storage at 37° C. (base formulation V, 2.0 wt% compound, 35 d): 50%

O=C(O)CC(O)(CC(=O)O)C(=O)O [B.2, citric acid trisodium salt, reference compound]
protease activity in the course of time of storage at 37° C. (base formulation I, 2.5 wt% compound, 3 d, trisodium salt): 95% | protease activity in the course of time of storage at 37° C. (base formulation I, 2.5 wt% compound, 7 d, trisodium salt): 84% | protease activity in the course of time of storage at 37° C. (base formulation I, 2.5 wt% compound, 14 d, trisodium salt): 68% | protease activity in the course of time of storage at 37° C. (base formulation I, 2.5 wt% compound, 21 d, trisodium salt): 64% | protease activity in the course of time of storage at 37° C. (base formulation I, 2.5 wt% compound, 28 d, trisodium salt): 59% | protease activity in the course of time of storage at 37° C. (base formulation I, 2.5 wt% compound, 35 d, trisodium salt): 55% | protease activity in the course of time of storage at 37° C. [13]: 95% | protease activity in the course of time of storage at 37° C. [14]: 82% | protease activity in the course of time of storage at 37° C. [15]: 75% | protease activity in the course of time of storage at 37° C. [16]: 66% | protease activity in the course of time of storage at 37° C. [17]: 63% | protease activity in the course of time of storage at 37° C. [18]: 60% | protease activity in the course of time of storage at 37° C. (base formulation III, 2.0 wt% compound, 3 d, trisodium salt): 93% | protease activity in the course of time of storage at 37° C. (base formulation III, 2.0 wt% compound, 7 d, trisodium salt): 83% | protease activity in the course of time of storage at 37° C. (base formulation III, 2.0 wt% compound, 14 d, trisodium salt): 73% | protease activity in the course of time of storage at 37° C. (base formulation III, 2.0 wt% compound, 21 d, trisodium salt): 62% | protease activity in the course of time of storage at 37° C. (base formulation III, 2.0 wt% compound, 28 d, trisodium salt): 57% | protease activity in the course of time of storage at 37° C. (base formulation III, 2.0 wt% compound, 35 d, trisodium salt): 50% | protease activity in the course of time of storage at 37° C. (base formulation IV, 2.0 wt% compound, 3 d): 91% | protease activity in the course of time of storage at 37° C. (base formulation IV, 2.0 wt% compound, 7 d): 86% | protease activity in the course of time of storage at 37° C. (base formulation IV, 2.0 wt% compound, 14 d): 70% | protease activity in the course of time of storage at 37° C. (base formulation IV, 2.0 wt% compound, 21 d): 64% | protease activity in the course of time of storage at 37° C. (base formulation IV, 2.0 wt% compound, 28 d): 58% | protease activity in the course of time of storage at 37° C. (base formulation IV, 2.0 wt% compound, 35 d): 52%

CCOC(=O)C(=O)OCC [B.3, diethyloxalate, reference compound]
protease activity in the course of time of storage at 37° C. [1]: 90% | protease activity in the course of time of storage at 37° C. [2]: 86% | protease activity in the course of time of storage at 37° C. [3]: 70% | protease activity in the course of time of storage at 37° C. [4]: 65% | protease activity in the course of time of storage at 37° C. [5]: 62% | protease activity in the course of time of storage at 37° C. [6]: 58% | protease activity in the course of time of storage at 37° C. [7]: 92% | protease activity in the course of time of storage at 37° C. [8]: 85% | protease activity in the course of time of storage at 37° C. [9]: 74% | protease activity in the course of time of storage at 37° C. [10]: 60% | protease activity in the course of time of storage at 37° C. [11]: 55% | protease activity in the course of time of storage at 37° C. [12]: 51%

CC(=O)OCC(COC(C)=O)OC(C)=O [B.4, glyceroltriacetate, reference compound]
protease activity in the course of time of storage at 37° C. [1]: 91% | protease activity in the course of time of storage at 37° C. [2]: 84% | protease activity in the course of time of storage at 37° C. [3]: 70% | protease activity in the course of time of storage at 37° C. [4]: 66% | protease activity in the course of time of storage at 37° C. [5]: 61% | protease activity in the course of time of storage at 37° C. [6]: 56% | protease activity in the course of time of storage at 37° C. [13]: 87% | protease activity in the course of time of storage at 37° C. [14]: 80% | protease activity in the course of time of storage at 37° C. [15]: 73% | protease activity in the course of time of storage at 37° C. [16]: 58% | protease activity in the course of time of storage at 37° C. [17]: 57% | protease activity in the course of time of storage at 37° C. [18]: 54%

Diethylcitrate [A.7]
protease activity in the course of time of storage at 37° C. [1]: 95% | protease activity in the course of time of storage at 37° C. [2]: 91% | protease activity in the course of time of storage at 37° C. [3]: 85% | protease activity in the course of time of storage at 37° C. [4]: 81% | protease activity in the course of time of storage at 37° C. [5]: 76% | protease activity in the course of time of storage at 37° C. [6]: 69% | protease activity in the course of time of storage at 37° C. (base formulation I, 2.5 wt% compound, T0): 100% | protease activity in the course of time of storage at 37° C. [13]: 98% | protease activity in the course of time of storage at 37° C. [14]: 96% | protease activity in the course of time of storage at 37° C. [15]: 94% | protease activity in the course of time of storage at 37° C. [16]: 90% | protease activity in the course of time of storage at 37° C. [17]: 87% | protease activity in the course of time of storage at 37° C. [18]: 83% | protease activity in the course of time of storage at 37° C. (base formulation II, 2.5 wt% compound, T0): 98% | protease activity in the course of time of storage at 37° C. [7]: 96% | protease activity in the course of time of storage at 37° C. [8]: 93% | protease activity in the course of time of storage at 37° C. [9]: 84% | protease activity in the course of time of storage at 37° C. [10]: 83% | protease activity in the course of time of storage at 37° C. [11]: 76% | protease activity in the course of time of storage at 37° C. [12]: 72% | protease activity in the course of time of storage at 37° C. (base formulation III, 2.0 wt% compound, T0): 100%
